# Measurements from ChEMBL document CHEMBL1149442, “Dual binding mode of a novel series of DHODH inhibitors” (J Med Chem, 2006).
# Molecular target: Dihydroorotate dehydrogenase (quinone), mitochondrial (Homo sapiens, UniProt Q02127)
# Test: Inhibitory activity against human DHODH
# Sequence of Dihydroorotate dehydrogenase (quinone), mitochondrial (Q02127 whole entry): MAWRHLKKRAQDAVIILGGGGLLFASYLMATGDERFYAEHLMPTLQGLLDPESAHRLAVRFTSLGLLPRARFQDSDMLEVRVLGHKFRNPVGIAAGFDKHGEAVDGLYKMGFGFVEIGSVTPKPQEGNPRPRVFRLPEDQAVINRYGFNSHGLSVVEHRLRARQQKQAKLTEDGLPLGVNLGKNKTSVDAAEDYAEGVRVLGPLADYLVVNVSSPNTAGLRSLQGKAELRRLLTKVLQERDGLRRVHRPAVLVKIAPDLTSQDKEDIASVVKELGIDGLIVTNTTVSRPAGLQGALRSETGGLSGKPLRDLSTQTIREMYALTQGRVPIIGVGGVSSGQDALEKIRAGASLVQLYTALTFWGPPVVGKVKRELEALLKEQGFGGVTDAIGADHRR
smiles,measurement,value
O=C(Nc1c(F)cc(-c2cccc(OC(F)(F)F)c2)cc1F)c1ccsc1C(=O)O,IC50,2 nM
